Literature values as cited in PubChem BioAssay AID1259409 (Chemical Carcinogenesis Research Information System (CCRIS), 2018).
Where “and” joins values, the source holds several entries; their conditions need not be identical. Equal entries are not always repeated.

Test system: rodent chemically induced tumor inhibition, incidence and multiplicity
Assay: CCRIS tumor inhibitor studies
Conditions: Species: RAT, Promoter: NONE USED

CN1C(=O)NC(c2ccccc2)(c2ccccc2)C1=O
tumour outcome (control, treated, inhibition, significance) (Carcinogen: 7,12-DIEMTHYLBENZ[A]ANTHRACENE, 57-97-6, Dose [Inhibitor]: 0, 200 UG/D IN ETHANOL/DRINKING WATER SOLUTION (1:500 ML) ADMINISTERED TO PINEALECTOMIZED RATS BEGINNING 1 WK POST CARCI, Route [Inhibitor]: ORAL, Strain/Sex: SPRAGUE-DAWLEY/FEMALE, Target Tissue: Type of Lesion: MAMMARY GLAND: TUMOR, Dose [Carcinogen]: 10 MG/ML SESAME OIL ADMINISTERED ONCE AT 55 D OF AGE): 80%, 36%, 55%, p<0.05 | tumour outcome (control, treated, inhibition, significance) (Carcinogen: 7,12-DIMETHYLBENZ[A]ANTHRACENE, 57-97-6, Dose [Inhibitor]: 0, 200 UG/D ETHANOL/DRINKING WATER SOLUTION (1:500 ML) ADMINISTERED TO INTACT RATS BEGINNING 1 WK POST CARCINOGEN DOSE A, Route [Inhibitor]: ORAL, Strain/Sex: SPRAGUE-DAWLEY/FEMALE, Target Tissue: Type of Lesion: MAMMARY GLAND: TUMOR, Dose [Carcinogen]: 10 MG/ML SESAME OIL ADMINISTERED ONCE AT 55 D OF AGE): 88%, 24%, 73%, p<0.005 | tumour outcome (control, treated, inhibition, significance) (Carcinogen: 7,12-DIMETHYLBENZ[A]ANTHRACENE, 57-97-6, Dose [Inhibitor]: 0, 200 UG/D IN ETHANOL/DRINKING WATER SOLUTION (1:500 ML) ADMINISTERED TO INTACT RATS BEGINNING 1 WK POST CARCINOGEN DOS, Route [Inhibitor]: ORAL, Strain/Sex: SPRAGUE-DAWLEY/FEMALE, Target Tissue: Type of Lesion: MAMMARY GLAND: TUMOR, Dose [Carcinogen]: 10 MG/ML SESAME OIL ADMINISTERED ONCE AT 55 D OF AGE): 70%, 16%, 77%, p<0.005 | tumour outcome (control, treated, inhibition, significance) (Carcinogen: 7,12-DIMETHYLBENZ[A]ANTHRACENE, 57-97-6, Dose [Inhibitor]: 0, 200 UG/D IN ETHANOL/DRINKING WATER SOLUTION (1:500 ML) ADMINISTERED TO INTACT RATS BEGINNING 1 WK PRIOR TO CARCINOGEN, Route [Inhibitor]: ORAL, Strain/Sex: SPRAGUE-DAWLEY/FEMALE, Target Tissue: Type of Lesion: MAMMARY GLAND: TUMOR, Dose [Carcinogen]: 10 MG/ML SESAME OIL ADMINISTERED ONCE AT 55 D OF AGE): 70%, 27%, 61%, p<0.05 and 88%, 38%, 57%, p<0.05 | tumour outcome (control, treated, inhibition, significance) (Carcinogen: 7,12-DIMETHYLBENZ[A]ANTHRACENE, 57-97-6, Dose [Inhibitor]: 0, 200 UG/D IN ETHANOL/DRINKING WATER SOLUTION (1:500 ML) ADMINISTERED TO PINEALECTOMIZED RATS BEGINNING 1 WK POST CARCI, Route [Inhibitor]: ORAL, Strain/Sex: SPRAGUE-DAWLEY/FEMALE, Target Tissue: Type of Lesion: MAMMARY GLAND: TUMOR, Dose [Carcinogen]: 10 MG/ML SESAME OIL ADMINISTERED ONCE AT 55 D OF AGE): 90%, 31%, 66%, p<0.005 | tumour outcome (control, treated, inhibition, significance) (Carcinogen: 7,12-DIMETHYLBENZ[A]ANTHRACENE, 57-97-6, Dose [Inhibitor]: 0, 200 UG/D IN ETHANOL/DRINKING WATER SOLUTION (1:500 ML) ADMINISTERED TO PINEALECTOMIZED RATS BEGINNING 1 WK PRIOR TO C, Route [Inhibitor]: ORAL, Strain/Sex: SPRAGUE-DAWLEY/FEMALE, Target Tissue: Type of Lesion: MAMMARY GLAND: TUMOR, Dose [Carcinogen]: 10 MG/ML SESAME OIL ADMINISTERED ONCE AT 55 D OF AGE): 90%, 64%, 29%, not calculated | tumour outcome (control, treated, inhibition, significance) (Carcinogen: 7,12-DIMETHYLBENZ[A]ANTHRACENE, 57-97-6, Dose [Inhibitor]: 0, 200 UG/D IN ETHANOL/DRINKING WATER SOLUTION. (1:500 ML) ADMINISTERED TO PINEALECTOMIZED RATS BEGINNING 1 WK PRIOR TO, Route [Inhibitor]: ORAL, Strain/Sex: SPRAGUE-DAWLEY/FEMALE, Target Tissue: Type of Lesion: MAMMARY GLAND: TUMOR, Dose [Carcinogen]: 10 MG/ML SESAME OIL ADMINISTERED ONCE AT 55 D OF AGE): 80%, 65%, 19%, not calculated

O=c1cc[nH]c(=O)[nH]1
tumour outcome (control, treated, inhibition, significance) (Carcinogen: 7,12-DIMETHYLBENZ[A]ANTHRACENE, 57-97-6, Dose [Inhibitor]: 1.5% IN 20% PROTEIN DIET (STUDY DURATION: 100 D), Route [Inhibitor]: ORAL, Strain/Sex: STRAIN-CB/FEMALE, Target Tissue: Type of Lesion: MAMMARY GLAND: TUMOR, Dose [Carcinogen]: 15 MG IN 1 ML ARACHIS OIL 1/2 WK FOR 3 DOSES STARTING AT 30 D OF AGE): 18/18 (100%), 18/21 (86%), 14%, not calculated | tumour outcome (control, treated, inhibition, significance) (Carcinogen: N-METHYL-N-NITROSOUREA, 684-93-5, Dose [Inhibitor]: 0, 3% IN DIET FOR 20 WK BEGINNING POST LAST CARCINOGEN DOSE (STUDY DURATION: 24 WK), Route [Inhibitor]: ORAL, Strain/Sex: F344/MALE, Target Tissue: Type of Lesion: LUNG: ADENOMA, Dose [Carcinogen]: 20 MG/KG 2/WK FOR 4 WK): 3/11 (27%), 0/9 (0%), 100%, not significant | tumour outcome (control, treated, inhibition, significance) (Carcinogen: N-METHYL-N-NITROSOUREA, 684-93-5, Dose [Inhibitor]: 0, 3% IN DIET FOR 20 WK BEGINNING POST LAST CARCINOGEN DOSE (STUDY DURATION: 24 WK), Route [Inhibitor]: ORAL, Strain/Sex: F344/MALE, Target Tissue: Type of Lesion: THYROID: ADENOMA, CARCINOMA, Dose [Carcinogen]: 20 MG/KG 2/WK FOR 4 WK): 6/11 (55%), 1/11 (10%), 82%, p>0.05

C[C@]12C[C@H](O)[C@H]3[C@@H](CCC4=CC(=O)CC[C@@]43C)[C@@H]1CC[C@@H]2C(=O)CO
tumour outcome (control, treated, inhibition, significance) (Dose [Inhibitor]: 0, 1.5 MG 2/WK FOR 10 WK (STUDY DURATION: 65 WK), Route [Inhibitor]: INTRAMUSCULAR, Strain/Sex: F344/MALE, Target Tissue: Type of Lesion: LIVER: HEPATOCELLULAR CARCINOMA, Dose [Carcinogen]: 100 UG 2/WK FOR 10 WK): 12/13 (92%), 12/23 (52%), 43%, p<0.02
